Assay results as given in ChEMBL document CHEMBL1201862, “PubChem BioAssay data set” (2004).
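Cultured in 96-well plates, cells were exposed to test compound for 48 hours across five concentrations. Here, GI50 denotes the concentration required for 50% inhibition of growth.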 Activity calls are given as the source filed them. No stated cut-off is given here; in the data, active = GI50 up to about 1.1 µM and inactive = higher.

Key:
Assay in all cases: NCI-60 cell line screen, 48 h
786-0 = tested on: 786-0
A498 = tested on: A498
A549 = tested on: A549
ACHN = tested on: ACHN
BT-549 = tested on: BT-549
CAKI-1 = tested on: CAKI-1
CCRF-CEM = tested on: CCRF-CEM
COLO 205 = tested on: COLO 205
DU-145 = tested on: DU-145
EKVX = tested on: EKVX
HCT-116 = tested on: HCT-116
HCT-15 = tested on: HCT-15
HL-60 = tested on: HL-60
HOP-62 = tested on: HOP-62
HOP-92 = tested on: HOP-92
HT-29 = tested on: HT-29
Hs-578T = tested on: Hs-578T
IGROV-1 = tested on: IGROV-1
K562 = tested on: K562
KM12 = tested on: KM12
LOX IMVI = tested on: LOX IMVI
M14 = tested on: M14
MCF7 = tested on: MCF7
MDA-MB-231 = tested on: MDA-MB-231
MDA-MB-435 = tested on: MDA-MB-435
MDA-N = tested on: MDA-N
MOLT-4 = tested on: MOLT-4
Malme-3M = tested on: Malme-3M
NCI-H226 = tested on: NCI-H226
NCI-H23 = tested on: NCI-H23
NCI-H460 = tested on: NCI-H460
NCI-H522 = tested on: NCI-H522
NCI/ADR-RES = tested on: NCI/ADR-RES
OVCAR-3 = tested on: OVCAR-3
OVCAR-4 = tested on: OVCAR-4
OVCAR-5 = tested on: OVCAR-5
OVCAR-8 = tested on: OVCAR-8
PC-3 = tested on: PC-3
RPMI-8226 = tested on: RPMI-8226
RXF 393 = tested on: RXF 393
SF-268 = tested on: SF-268
SF-295 = tested on: SF-295
SF-539 = tested on: SF-539
SK-MEL-28 = tested on: SK-MEL-28
SK-MEL-2 = tested on: SK-MEL-2
SK-MEL-5 = tested on: SK-MEL-5
SK-OV-3 = tested on: SK-OV-3
SN12C = tested on: SN12C
SNB-19 = tested on: SNB-19
SNB-75 = tested on: SNB-75
SR = tested on: SR
SW-620 = tested on: SW-620
T47D = tested on: T47D
TK-10 = tested on: TK-10
U-251 = tested on: U-251
UACC-257 = tested on: UACC-257
UACC-62 = tested on: UACC-62
UO-31 = tested on: UO-31
HCC 2998 = tested on: HCC 2998

## CSc1cccc(NC(=O)OC2CCCCCCCCCCC2)c1
786-0
  GI50: 20.9 µM (inactive)
A498
  GI50: 21.7 µM (inactive)
A549
  GI50: 26.9 µM (inactive)
ACHN
  GI50: 27.7 µM (inactive)
BT-549
  GI50: 34.8 µM (inactive)
CAKI-1
  GI50: 17.6 µM (inactive)
CCRF-CEM
  GI50: 16.4 µM (inactive)
COLO 205
  GI50: 14.5 µM (inactive)
DU-145
  GI50: 31.8 µM (inactive)
EKVX
  GI50: 19.1 µM (inactive)
HCT-116
  GI50: 15.1 µM (inactive)
HCT-15
  GI50: 28.8 µM
HL-60
  GI50: 14.3 µM (inactive)
HOP-62
  GI50: 18.8 µM (inactive)
HOP-92
  GI50: 27.4 µM (inactive)
HT-29
  GI50: 16.6 µM (inactive)
Hs-578T
  GI50: 34.4 µM (inactive)
IGROV-1
  GI50: 33.4 µM (inactive)
K562
  GI50: 16.4 µM (inactive)
KM12
  GI50: 13.3 µM (inactive)
LOX IMVI
  GI50: 18 µM (inactive)
M14
  GI50: 22.3 µM (inactive)
MCF7
  GI50: 20.6 µM (inactive)
MDA-MB-231
  GI50: 23.6 µM (inactive)
MDA-MB-435
  GI50: 15.7 µM (inactive)
MDA-N
  GI50: 21 µM (inactive)
MOLT-4
  GI50: 23.5 µM (inactive)
Malme-3M
  GI50: 24.8 µM (inactive)
NCI-H226
  GI50: 29.9 µM (inactive)
NCI-H23
  GI50: 24.4 µM (inactive)
NCI-H460
  GI50: 16.4 µM (inactive)
NCI-H522
  GI50: 13.2 µM (inactive)
NCI/ADR-RES
  GI50: 21.4 µM (inactive)
OVCAR-3
  GI50: 10.5 µM (inactive)
OVCAR-4
  GI50: 10.4 µM (inactive)
OVCAR-5
  GI50: 30.3 µM (inactive)
OVCAR-8
  GI50: 26.7 µM (inactive)
PC-3
  GI50: 31 µM (inactive)
RPMI-8226
  GI50: 14.7 µM (inactive)
RXF 393
  GI50: 18.8 µM (inactive)
SF-268
  GI50: 29.8 µM (inactive)
SF-295
  GI50: 11.9 µM (inactive)
SF-539
  GI50: 24.4 µM (inactive)
SK-MEL-28
  GI50: 39.7 µM (inactive)
SK-MEL-2
  GI50: 18.4 µM (inactive)
SK-MEL-5
  GI50: 15.4 µM (inactive)
SK-OV-3
  GI50: 16.6 µM (inactive)
SN12C
  GI50: 15.5 µM (inactive)
SNB-19
  GI50: 37.5 µM (inactive)
SNB-75
  GI50: 35.2 µM (inactive)
SR
  GI50: 26.9 µM (inactive)
SW-620
  GI50: 18.8 µM (inactive)
T47D
  GI50: 25.4 µM (inactive)
TK-10
  GI50: 26.9 µM (inactive)
U-251
  GI50: 18.8 µM (inactive)
UACC-257
  GI50: 16 µM (inactive)
UACC-62
  GI50: 18.1 µM (inactive)
UO-31
  GI50: 7.91 µM (inactive)

## Oc1nc2c(c(-c3cccc(Cl)c3)n1)COC/C2=C\c1cccc(Cl)c1
786-0
  GI50: > 100 µM (inactive)
A498
  GI50: > 100 µM (inactive)
ACHN
  GI50: > 100 µM (inactive)
BT-549
  GI50: > 100 µM (inactive)
CAKI-1
  GI50: > 100 µM (inactive)
CCRF-CEM
  GI50: 64.4 µM (inactive)
COLO 205
  GI50: > 100 µM (inactive)
DU-145
  GI50: > 100 µM (inactive)
EKVX
  GI50: > 100 µM (inactive)
HCC 2998
  GI50: > 100 µM (inactive)
HCT-116
  GI50: > 100 µM (inactive)
HCT-15
  GI50: > 100 µM
HOP-62
  GI50: > 100 µM (inactive)
HOP-92
  GI50: > 100 µM (inactive)
Hs-578T
  GI50: > 100 µM (inactive)
IGROV-1
  GI50: > 100 µM (inactive)
K562
  GI50: > 100 µM (inactive)
KM12
  GI50: > 100 µM (inactive)
LOX IMVI
  GI50: > 100 µM (inactive)
M14
  GI50: > 100 µM (inactive)
MCF7
  GI50: > 100 µM (inactive)
MDA-MB-231
  GI50: > 100 µM (inactive)
MDA-MB-435
  GI50: > 100 µM (inactive)
MDA-N
  GI50: > 100 µM (inactive)
MOLT-4
  GI50: > 100 µM (inactive)
NCI-H226
  GI50: > 100 µM (inactive)
NCI-H23
  GI50: > 100 µM (inactive)
NCI-H460
  GI50: > 100 µM (inactive)
NCI-H522
  GI50: > 100 µM (inactive)
NCI/ADR-RES
  GI50: > 100 µM (inactive)
OVCAR-3
  GI50: > 100 µM (inactive)
OVCAR-4
  GI50: > 100 µM (inactive)
OVCAR-5
  GI50: > 100 µM (inactive)
OVCAR-8
  GI50: > 100 µM (inactive)
PC-3
  GI50: > 100 µM (inactive)
RPMI-8226
  GI50: 69.7 µM (inactive)
RXF 393
  GI50: > 100 µM (inactive)
SF-268
  GI50: > 100 µM (inactive)
SF-295
  GI50: > 100 µM (inactive)
SF-539
  GI50: > 100 µM (inactive)
SK-MEL-2
  GI50: > 100 µM (inactive)
SK-MEL-5
  GI50: > 100 µM (inactive)
SK-OV-3
  GI50: > 100 µM (inactive)
SN12C
  GI50: > 100 µM (inactive)
SNB-19
  GI50: > 100 µM (inactive)
SNB-75
  GI50: > 100 µM (inactive)
SR
  GI50: > 100 µM (inactive)
SW-620
  GI50: > 100 µM (inactive)
T47D
  GI50: > 100 µM (inactive)
TK-10
  GI50: > 100 µM (inactive)
U-251
  GI50: > 100 µM (inactive)
UACC-257
  GI50: > 100 µM (inactive)
UACC-62
  GI50: > 100 µM (inactive)
UO-31
  GI50: > 100 µM (inactive)
